In paper PMC8348766, “Enhancement of Anti-Tumoral Immunity by β-Casomorphin-7 Inhibits Cancer Development and Metastasis of Colorectal Cancer” (International Journal of Molecular Sciences, 2021):
No end group written: not given here.

Experiments:
[1] = target: T1, CD10 (Homo sapiens, UniProt P08473); experiment: Suppression of CD10-mediated BCM degradation by thiorphan; format: biochemical; settings: TOP 1 μM in combination with CD10; 125I-labeled BCM 50 μg
[2] = cited from earlier work
Text: BCM also acts on the immune system. […] Conversely, BCM suppresses lymphocyte proliferation at low concentrations, but promotes it at high concentrations above 10^−7 M [18] by activating the T cell helper (Th)-2 pathway, which induces an inflammatory response in the gut. […] Therefore, under such physiological conditions, BCM presents only in low concentrations and might suppress the immune syst ... || The CD10 that we examined in this study has various alternative names, including membrane metalloendopeptidase, common acute lymphocytic leukemia antigen, neprilysin, neutral endopeptidase, enkephalinase, and atriopeptidase [NCBI, OMIM]. CD10 is known to degrade short peptides such as natriuretic peptides, angiotensin II, bradykinin, apelins, substance P, and adrenomedullin [38]. CD10 expression is widespread in the intestinal mucosa. Incubation of BCM with brush border of the intestinal mucosa degrades 95% of BCM in 24 h.

[3] = target: T1, CD10; experiment: Degradation of 125I-labeled BCM by CD10; format: in vitro ADME
Experimental: Figure 1 Effect of BCM on spleen cells and degradation of BCM by CD10. (A) Effect of BCM on subpopulations of spleen cells. Spleen cells of BALB/c mice were treated with BCM (0.1 μg/mL) for 48 h. Differentiation markers were examined by ELISA. (B) Effect of CD10 on degradation of BCM. ^125I-labeled BCM (50 μg) was incubated with CD10 for 16 h. Intact BCM bound to anti-BCM antibody and degraded peptides were separated with electrophoresis and detected by autoradiography. […] (E) Time course of degradation of BCM by CD10. ^125I-labeled BCM (50 μg) was incubated with CD10 (60 μg) and TOP (1 μM). (F) Effect of degraded BCM on subset of spleen cells. Error bar, standard deviation from three independent trials. BCM, β-casomorphin-7; cluster of differentiation; ELISA, enzyme-linked immunosorbent assay; Treg, regulatory T cell; tyr-pro, 1st and 2nd amino acids of BCM; Ab, anti-BCM antibody; TOP, thiorphan.
The N-terminal tyrosine of BCM was labeled with ^125I, and then treated with CD10, followed by treatment with an anti-BCM antibody and electrophoresis in a 15–25% polyacrylamide gel. […] It is considered that a short fragment of tyr-pro at the N-terminal of ^125I-labeled BCM was cleaved. […] In contrast, no decrease in intact BCM was observed when it was additionally treated with TOP. Of note, the CD10 degradation product of BCM had no effect on the lymphocyte subset (Figure 1F).
BCM was purchased from Sigma. Di-amino acid peptide (tyr-pro; 1st and 2nd amino acids of BCM) was synthesized by Peptide Institute Inc. (Ibaraki, Japan). BCM and the tyr-pro peptide were labeled by chloramine-T method with ^125I (J-RAM, Tokyo, Japan) using Pierce™ iodination beads (Thermo Fisher). Labeled BCM was incubated with CD10 in neutral peptidase assay buffer (40 mM Tris-HCl pH 7.1, 4 mM MgCl2, 0.5 mM ZnCl2) for 16 h. Thereafter, the solution was incubated with anti-BCM antibody (Abnova, Taipei City, Taiwan) at 37 °C for 2 h. […] The radioactivity of the solution was also measured by a fluid scintillation counter (LSC-8000, Hitachi, Tokyo, Japan).

T1 sequence (P08473 whole entry, species assumed): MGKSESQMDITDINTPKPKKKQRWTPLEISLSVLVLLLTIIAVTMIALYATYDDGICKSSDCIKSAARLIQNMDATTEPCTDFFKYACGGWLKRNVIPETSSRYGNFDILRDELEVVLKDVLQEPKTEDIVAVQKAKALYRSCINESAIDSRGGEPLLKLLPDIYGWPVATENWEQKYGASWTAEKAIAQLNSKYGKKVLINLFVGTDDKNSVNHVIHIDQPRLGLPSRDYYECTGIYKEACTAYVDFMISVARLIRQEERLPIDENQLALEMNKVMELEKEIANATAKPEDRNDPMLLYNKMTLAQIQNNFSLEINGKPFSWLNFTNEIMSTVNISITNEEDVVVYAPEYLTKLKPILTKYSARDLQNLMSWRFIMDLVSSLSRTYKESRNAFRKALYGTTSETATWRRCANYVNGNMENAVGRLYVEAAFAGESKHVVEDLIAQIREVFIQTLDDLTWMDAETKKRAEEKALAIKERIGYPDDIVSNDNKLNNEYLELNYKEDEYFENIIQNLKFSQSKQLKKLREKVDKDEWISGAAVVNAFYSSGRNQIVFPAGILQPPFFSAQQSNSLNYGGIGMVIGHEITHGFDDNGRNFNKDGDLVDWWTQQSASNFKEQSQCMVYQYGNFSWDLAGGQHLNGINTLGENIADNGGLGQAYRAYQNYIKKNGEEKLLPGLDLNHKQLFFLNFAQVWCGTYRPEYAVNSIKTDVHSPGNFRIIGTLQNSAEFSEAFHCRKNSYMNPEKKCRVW

degradation of BCM by CD10 in presence of TOP [1]	Compound	fraction of BCM degraded on incubation with brush border of the intestinal mucosa ([2]; 24 h) [%]	fraction of BCM degraded by digestive juice and jejunal brush border [2] [%]	degraded fragment observed after CD10 treatment ([3]; 125I label on N-terminal tyrosine, position in polyacrylamide gel compared with labeled marker)	change in intact BCM over time with CD10 plus TOP ([3]; CD10 60 μg/mL + TOP 1 μM, time course, 125I-labeled BCM 50 μg)	time after which intact BCM completely disappeared ([3]; CD10 60 μg/mL, time course, 125I-labeled BCM 50 μg, Tris-HCl pH 7.1 buffer, electrophoresis, autoradiography) [h]
completely suppressed	O=C(O)CNC(=O)C(CS)Cc1ccccc1 (stereo not drawn) [TOP, thiorphan]	–	–	–	–	–
–	YPFPGPI [BCM, β-Casomorphin-7]	95	95	tyr-pro	no decrease	24
